Assay results reported in patent US7825155B2, “Oxindole derivative as feeding control agent” (priority 2005, dated 2010).

Columns and labels:
[1] = molecular target: T1, human GHSR (growth hormone secretagogue receptor) (Homo sapiens, UniProt Q92847); format: cell-based; conditions: 1 μM compound, 10 nM Ghrelin, human GHSR CHO-K1 cells
T1 construct: host or cells: CHO-K1
Procedure: Assessment of Ghrelin Antagonism Using Human GHSR Stably Expressing Cells
By using cells wherein human GHSR (growth hormone secretagogue receptor) is stably expressed, the effects of compounds of the Examples on elevation of cellular calcium ion concentrations were evaluated when endogenous ligand Ghrelin was added to the cells.
Human GHSR stably expressing CHO-K1 cells (EUROSCREEN) were seeded on 96-well assay plate (Black plate, Clear Bottom (Corning)) in 2×10^4 cells/100 μl/well, and incubated in cell culture device for 1 day at 37° C. under 5% CO2. […]
Ghrelin was combined with an equal amount of the test compound which was prepared with Hanks/Hepes (pH7.4) in a concentration of 10-times of the final concentration, and the mixture was added to the cells in 50 μl/well. Immediately after that, excitation wavelength in 488 nm was measured by FLIPR (Molecular Devices) 80 times at 1 second interval. Ghrelin antagonistic ratio (%) of the compound in the concentration of 1 μM was calculated according to the following equation wherein the values of fluorescence intensity means those obtained by deducting the minimum value from the maximum value. […]
A: Fluorescence intensity in case of adding 1 μM of the compound and 10 nM of Ghrelin
B: Fluorescence intensity in case of no addition of the compound and Ghrelin
C: Fluorescence intensity in case of adding only 10 nM of Ghrelin

[2] = test system: Ghrelin-induced feeding increasing mice; assay: Assessment of feeding in mice (Ghrelin-induced feeding increasing mice); format: in vivo; conditions: ICR mice, compound i.p. 12.5, 25, 50 mg/kg, Ghrelin 250 nmol/kg i.v., 1, 2 and 4 hours
Procedure: Assessment of Feeding in Mice
The effects of compounds of the Examples on the feeding amount in intraperitoneally administering the compound were evaluated using Ghrelin-induced feeding increasing mice.
ICR mice (male, 7-week-old, Charles River Laboratories) were fed in 5 mice in each cage. Food (CE-2, Oriental Yeast Co., Ltd.) and sterile tap water were intaken freely.
ICR mice were intraperitoneally administered the compound (12.5, 25, 50 mg/kg) miscible in 10% polyethylene glycol #400, and immediately after that, intravenously administered Ghrelin (250 nmol/kg) dissolved in saline.
The food weight was measured 4 times in total: just before the administration of Ghrelin, and 1, 2 and 4 hours after the administration. The inhibition ratio was calculated according to the following equation and the integrated feeding amount until each measuring time point. Each treatment group consisted of 10 mice.
Inhibition ratio (%)=(B−C)/(B−A)×100
A: Feeding amount (g) in group administered with only vehicle
B: Feeding amount (g) in group administered with only Ghrelin
C: Feeding amount (g) in group administered with Ghrelin and test compound

T1 sequence (Q92847 whole entry): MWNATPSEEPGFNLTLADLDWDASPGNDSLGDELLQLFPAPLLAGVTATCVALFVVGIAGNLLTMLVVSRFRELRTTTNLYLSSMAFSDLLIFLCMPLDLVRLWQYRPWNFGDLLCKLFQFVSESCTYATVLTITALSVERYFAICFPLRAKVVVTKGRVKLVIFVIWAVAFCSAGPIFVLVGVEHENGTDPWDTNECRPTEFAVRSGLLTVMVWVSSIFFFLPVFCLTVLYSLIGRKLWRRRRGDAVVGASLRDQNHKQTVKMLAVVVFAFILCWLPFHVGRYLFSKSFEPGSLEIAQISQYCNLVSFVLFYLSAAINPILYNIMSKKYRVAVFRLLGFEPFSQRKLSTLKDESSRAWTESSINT

CCN(CC)[C@H]1C[C@H](CN2C(=O)C(O)(c3ccc(Cl)cc3Cl)c3c2cc(-c2ncco2)cc3C(F)(F)F)C1 (stereo partly drawn) [Example 14, 3-(2,4-dichlorophenyl)-1-[trans-3-(diethylamino)-cyclobutylmethyl]-4-trifluoromethyl-3-hydroxy-6-(2-oxazolyl)-1,3-dihydro-2H-indol-2-one]
Ghrelin antagonistic ratio [1]: 74%

CCN(CC)[C@H]1C[C@H](CN2C(=O)C(O)(c3ccc(Cl)cc3Cl)c3c2cc(C(N)=O)cc3C(F)(F)F)C1.Cl (stereo partly drawn) [Example 1, 3-(2,4-dichlorophenyl)-1-[trans-3-(diethylamino)-cyclobutylmethyl]-4-trifluoromethyl-3-hydroxy-2-oxoindoline-6-carboxamide Hydrochloride]
Inhibition ratio of feeding amount, maximum [2]: 110%
Ghrelin antagonistic ratio [1]: 82%
